Source: ChEMBL document CHEMBL3885881, “DrugMatrix”

Organism: Rattus norvegicus
Assay: DrugMatrix - Regimen: Daily Repeat
Format: toxicity, organism-based, Sprague-Dawley
Parameters: regimen Daily Repeat, gender Male, age 6-8 weeks
Conditions: in vivo, po, 0 mg/kg, route oral GAVAGE, dose level Control; for ABSOLUTE BASOPHIL / ABSOLUTE EOSINOPHIL / ABSOLUTE LYMPHOCYTE / ABSOLUTE MONOCYTE / ABSOLUTE SEGMENTED NEUTROPHIL / BASOPHIL / EOSINOPHIL / ERYTHROCYTE COUNT / HEMATOCRIT / HEMOGLOBIN / LEUKOCYTE COUNT / LYMPHOCYTE / MEAN CORPUSCULAR HEMOGLOBIN / MEAN CORPUSCULAR HEMOGLOBIN CONCENTRATION / MEAN CORPUSCULAR VOLUME / MONOCYTE / NEUTROPHIL / NUCLEATED RED BLOOD CELLS / PLATELET COUNT: tissue Blood; for ALANINE AMINOTRANSFERASE / ALBUMIN / ALKALINE PHOSPHATASE / ASPARTATE AMINOTRANSFERASE / BLOOD UREA NITROGEN / CARBON DIOXIDE / CHLORIDE / CHOLESTEROL / CREATINE PHOSPHOKINASE / CREATININE / GLUCOSE / LACTATE DEHYDROGENASE / LIPASE / PHOSPHORUS / POTASSIUM / SODIUM / TOTAL BILIRUBIN / TOTAL PROTEIN / URIC ACID: tissue Plasma
[1] = 72 h, time 3 day, vehicle 100 % WATER

Structure (SMILES): Cn1cnc([N+](=O)[O-])c1Sc1ncnc2nc[nH]c12 [AZATHIOPRINE]
- ABSOLUTE BASOPHIL (72 h, time 3 day, […]): 0 CELLS/uL
- ABSOLUTE EOSINOPHIL (72 h, time 3 day, […]): 0 CELLS/uL
- ABSOLUTE LYMPHOCYTE (72 h, time 3 day, […]): 7601 CELLS/uL
- ABSOLUTE MONOCYTE (72 h, time 3 day, […]): 354.33 CELLS/uL
- ABSOLUTE SEGMENTED NEUTROPHIL (72 h, time 3 day, […]): 744.67 CELLS/uL
- BASOPHIL (72 h, time 3 day, […]): 0%
- EOSINOPHIL (72 h, time 3 day, […]): 0%
- ERYTHROCYTE COUNT (72 h, time 3 day, […]): 5.03 x10E6/uL
- HEMATOCRIT (72 h, time 3 day, […]): 33.7%
- HEMOGLOBIN (72 h, time 3 day, […]): 13.43 G/DL
- LEUKOCYTE COUNT (72 h, time 3 day, […]): 8.7 x10E3/uL
- LYMPHOCYTE (72 h, time 3 day, […]): 86.33%
- MEAN CORPUSCULAR HEMOGLOBIN (72 h, time 3 day, […]): 26.7 pg
- MEAN CORPUSCULAR HEMOGLOBIN CONCENTRATION (72 h, time 3 day, […]): 39.83 G/DL
- MEAN CORPUSCULAR VOLUME (72 h, time 3 day, […]): 67 fL
- MONOCYTE (72 h, time 3 day, […]): 4.67%
- NEUTROPHIL (72 h, time 3 day, […]): 9%
- NUCLEATED RED BLOOD CELLS (72 h, time 3 day, […]): 0 /100WBC
- PLATELET COUNT (72 h, time 3 day, […]): 1151 x10E3/uL
- ABSOLUTE EOSINOPHIL [1]: 91.5 CELLS/uL
- ABSOLUTE LYMPHOCYTE [1]: 14108.83 CELLS/uL
- ABSOLUTE MONOCYTE [1]: 81 CELLS/uL
- ABSOLUTE SEGMENTED NEUTROPHIL [1]: 818.67 CELLS/uL
- EOSINOPHIL [1]: 0.67%
- ERYTHROCYTE COUNT [1]: 5.56 x10E6/uL
- HEMATOCRIT [1]: 34.5%
- HEMOGLOBIN [1]: 13.45 G/DL
- LEUKOCYTE COUNT [1]: 15.1 x10E3/uL
- LYMPHOCYTE [1]: 93%
- MEAN CORPUSCULAR HEMOGLOBIN [1]: 24.2 pg
- MEAN CORPUSCULAR HEMOGLOBIN CONCENTRATION [1]: 38.98 G/DL
- MEAN CORPUSCULAR VOLUME [1]: 62.07 fL
- MONOCYTE [1]: 0.5%
- NEUTROPHIL [1]: 5.83%
- PLATELET COUNT [1]: 1193.33 x10E3/uL
- ALANINE AMINOTRANSFERASE (72 h, time 3 day, […]): 97.67 u/L
- ALBUMIN (72 h, time 3 day, […]): 4.07 G/DL
- ALKALINE PHOSPHATASE (72 h, time 3 day, […]): 607.67 u/L
- ASPARTATE AMINOTRANSFERASE (72 h, time 3 day, […]): 101 u/L
- BLOOD UREA NITROGEN (72 h, time 3 day, […]): 13.33 mg/dL
- CARBON DIOXIDE (72 h, time 3 day, […]): 36 mmol/L
- CHLORIDE (72 h, time 3 day, […]): 99.67 MEQ/L
- CHOLESTEROL (72 h, time 3 day, […]): 75.67 mg/dL
- CREATINE PHOSPHOKINASE (72 h, time 3 day, […]): 279.67 u/L
- CREATININE (72 h, time 3 day, […]): 0.16 mg/dL
- GLUCOSE (72 h, time 3 day, […]): 164 mg/dL
- LACTATE DEHYDROGENASE (72 h, time 3 day, […]): 115 u/L
- LIPASE (72 h, time 3 day, […]): 12.67 u/L
- PHOSPHORUS (72 h, time 3 day, […]): 8.77 mg/dL
- POTASSIUM (72 h, time 3 day, […]): 5.79 MEQ/L
- SODIUM (72 h, time 3 day, […]): 142.83 MEQ/L
- TOTAL BILIRUBIN (72 h, time 3 day, […]): 0.27 mg/dL
- TOTAL PROTEIN (72 h, time 3 day, […]): 5.8 G/DL
- URIC ACID (72 h, time 3 day, […]): 0.67 mg/dL
- ALANINE AMINOTRANSFERASE [1]: 60.33 u/L
- ALBUMIN [1]: 4 G/DL
- ALKALINE PHOSPHATASE [1]: 334.83 u/L
- ASPARTATE AMINOTRANSFERASE [1]: 74.5 u/L
- BLOOD UREA NITROGEN [1]: 13.5 mg/dL
- CARBON DIOXIDE [1]: 30.33 mmol/L
- CHLORIDE [1]: 98.33 MEQ/L
- CHOLESTEROL [1]: 71.17 mg/dL
- CREATINE PHOSPHOKINASE [1]: 212 u/L
- CREATININE [1]: 0.21 mg/dL
- GLUCOSE [1]: 173.17 mg/dL
- LACTATE DEHYDROGENASE [1]: 101.5 u/L
- LIPASE [1]: 24.17 u/L
- PHOSPHORUS [1]: 10.87 mg/dL
- POTASSIUM [1]: 6.06 MEQ/L
- SODIUM [1]: 140.58 MEQ/L
- TOTAL BILIRUBIN [1]: 0.17 mg/dL
- TOTAL PROTEIN [1]: 5.9 G/DL
- URIC ACID [1]: 1.23 mg/dL
- ABSOLUTE BASOPHIL (120 h, time 5 day, […]): 0 CELLS/uL
- ABSOLUTE EOSINOPHIL (120 h, time 5 day, […]): 0 CELLS/uL
- ABSOLUTE LYMPHOCYTE (120 h, time 5 day, […]): 4426.33 CELLS/uL
- ABSOLUTE MONOCYTE (120 h, time 5 day, […]): 102.67 CELLS/uL
- ABSOLUTE SEGMENTED NEUTROPHIL (120 h, time 5 day, […]): 337.67 CELLS/uL
- BASOPHIL (120 h, time 5 day, […]): 0%
- EOSINOPHIL (120 h, time 5 day, […]): 0%
- ERYTHROCYTE COUNT (120 h, time 5 day, […]): 5.31 x10E6/uL
- HEMATOCRIT (120 h, time 5 day, […]): 32.5%
- HEMOGLOBIN (120 h, time 5 day, […]): 13.17 G/DL
- LEUKOCYTE COUNT (120 h, time 5 day, […]): 4.87 x10E3/uL
- LYMPHOCYTE (120 h, time 5 day, […]): 90.33%
- MEAN CORPUSCULAR HEMOGLOBIN (120 h, time 5 day, […]): 24.93 pg
- MEAN CORPUSCULAR HEMOGLOBIN CONCENTRATION (120 h, time 5 day, […]): 40.67 G/DL
- MEAN CORPUSCULAR VOLUME (120 h, time 5 day, […]): 61.33 fL
- MONOCYTE (120 h, time 5 day, […]): 2.33%
- NEUTROPHIL (120 h, time 5 day, […]): 7.33%
- NUCLEATED RED BLOOD CELLS (120 h, time 5 day, […]): 0.33 /100WBC
- PLATELET COUNT (120 h, time 5 day, […]): 848.33 x10E3/uL
- ABSOLUTE EOSINOPHIL (120 h, time 5 day, vehicle 100 % WATER): 34.5 CELLS/uL
